Laboratory results taken from patent US4806538A, “Piperazine compound as PAF-antagonist” (Fujisawa Pharmaceutical Co., Ltd., priority 1984, dated 1989).
≈ marks a conversion by molar mass, not a printed value.

Key:
[1] = system: Platelet aggregation induced with PAF; experiment: Test 1: inhibition of PAF-induced platelet aggregation in platelet rich plasma; type: cell-based, Japanese white rabbit; conditions: Oryctolagus cuniculus, rabbit PRP, 5×10^5 cells/mm^3, final concentration of PAF usually 20 nM
Description: (Inhibition of platelet aggregation)
Blood was collected through the polyethylene catheter introduced into the carotid artery of male Japanese white rabbit (2.5 to 3 kg body weight). The blood was anticoagulated with 1 volume of 3.8% sodium citrate to 9 volume of blood. Platelet rich plasma (PRP) was prepared by centrifugation of the blood at 150 g for 10 minutes at room temperature. The PRP was diluted with platelet poor plasma obtained by further centrifugation of the blood at 1,000 g for 20 minutes. The platelet number was 5×10^5 cells/mm^3. Platelet aggregation induced with PAF was measured by the nephelometric technique of Born and Cross [cf. Journal of Physiology 168, 178-188 (1963)] using HKK Hema tracer (trade name, made by Niko Bioscience Inc.).
Activities of inhibitors were expressed as IC50 value, i.e. concentrations required to inhibit the platelet aggregation response by 50%. The final concentration of PAF was usually 20 nM.

[2] = system: vascular permeability increase induced by intradermally injected PAF; experiment: Test 3: inhibition of vascular permeability increase induced by intradermally injected PAF in mice (test compound i.p.); type: in vivo, ddY mice; conditions: 10 mg/kg i.p., 15 minutes before Evans blue; PAF 50 ng intradermally; 30 minutes after PAF
Description: (§1) (Inhibition of vascular permeability increase induced by intradermally injected PAF in mice)
Six-week old male ddY mice were used. The test compound was administered intraperitoneally 15 minutes before the Evans blue injection (0.125% solution in saline, 0.2 ml/mouse, i.v.).
PAF (50 ng, 50 μl per size) was injected intradermally to the depilated back of the mice 5 minutes after the Evans blue injection.
(§2) The inhibitory activity of the test compound was monitored 30 minutes after the PAF injection by assessment of blueing reaction with Evans blue dye in mice skin.

[3] = system: synthetic PAF induced hypotension; experiment: Test 2: inhibition of hypotensive effect induced by intravenously injected PAF in rats; type: in vivo, Sprague-Dowley rats; conditions: 3 minutes before PAF (1 μg/kg i.v.), anesthetized rats
Description: (Inhibition of hypotensive effect induced by intraveneously injected PAF in rats)
Seven-week old Sprague-Dowley rats were anesthetized with urethane (1 g/kg, i. p.). Catheters were introduced into the femoral artery and vein for the measurement of arterial pressure and the administration of the test compound, respectively. Blood pressure was recorded from femoral artery using a transducer coupled to the Biophysiograph 180 System (San-Ei Instrument Co., Ltd.). Inhibitory activity of the test compound was shown in the following Table as the inhibition percentage of the synthetic PAF induced hypotension. PAF was administered intravenously at a dose of 1 μg/kg. The test compound was administered intravenously 3 minutes before PAF injection.

[4] = system: vascular permeability increase induced by intradermally injected PAF; experiment: Test 4: inhibition of vascular permeability increase induced by intradermally injected PAF in mice (test compound orally); type: in vivo, ddY mice; conditions: 100 mg/kg orally, 30 minutes before Evans blue; PAF 50 ng intradermally; 30 minutes after PAF
Description: as §1
Five-week old male ddY mice were used. The test compound suspended in 0.5 methylcellulose suspension was administered orally 30 minutes before the Evans blue injection (0.125% solution in saline, 10 ml/kg, i.v.).
PAF (50 ng, 50 μl per site) was injected intradermally to the depilated back of the mice 5 minutes after the Evans blue injection.
as §2

Row | Compound | IC50 [1] [mg/L] | also measured
1 | CSCCCC1NC(=O)[C@@H](Cc2cn(C)c3ccccc23)NC1=O (single isomer, unassigned) [Test compound 5] | 0.55 (≈ 1.59 µM) | –
2 | CSCC[C@@H]1C(=O)N(C)[C@H](Cc2cn(C)c3ccccc23)C(=O)N1C [Example 4, (3R,6R)-1,4-dimethyl-3-(1-methylindol-3-ylmethyl)-6-(2-methylthioethyl)piperazine-2,5-dione] | 0.84 (≈ 2.34 µM) | –
3 | CSCC[C@H]1NC(=O)[C@@H]([C@H](C)c2cccc3ccccc23)NC1=O [Test compound 9] | 0.061 (≈ 0.178 µM) | Inhibition of vascular permeability increase (%) [2]: 40%; Inhibition maximum (%) of hypotensive effect ([3]; 3 mg/kg i.v.): 51%
4 | Cn1cc(C[C@H]2NC(=O)[C@@H](Cc3cn(C)c4ccccc34)NC2=O)c2ccccc21 [Test compound 7] | 1.2 (≈ 3 µM) | –
5 | CC(C)C[C@H]1NC(=O)[C@@H](Cc2cn(C)c3ccccc23)NC1=O [Test compound 2] | 1.04 (≈ 3.32 µM) | Inhibition of vascular permeability increase (%) [2]: 30%; Inhibition maximum (%) of hypotensive effect ([3]; 10 mg/kg i.v.): 75%
6 | CSCC[C@H]1NC(=O)[C@@H](Cc2cn(C)c3ccccc23)NC1=O [Example 1, (3R,6R)-3-(1-methylindol-3-ylmethyl)-6-(2-methylthioethyl)piperazine-2,5-dione] | 0.71 (≈ 2.14 µM) | –
7 | CCCC[C@H]1NC(=O)[C@@H](Cc2cn(C)c3ccccc23)NC1=O [Test compound 8] | 0.58 (≈ 1.85 µM) | –
8 | C[C@H](c1cn(C)c2ccccc12)[C@H]1NC(=O)[C@@H](Cc2ccccn2)NC1=O [Example 18, (3R,6R)-3-[(R)-1-(1-methylindol-3-yl)ethyl]-6-(2-pyridylmethyl)piperazine-2,5-dione] | 0.16 (≈ 0.441 µM) | Inhibition of vascular permeability increase (%) [4]: 56.7%

Further lines, with some results ahead:

Row | IC50 [1] [mg/L] | Compound | also measured
9 | 0.65 (≈ 1.9 µM) | CSCC[C@H]1NC(=O)[C@@H]([C@@H](C)c2cccc3ccccc23)NC1=O [Test compound 12] | –
10 | 0.93 (≈ 3.11 µM) | CCC[C@H]1NC(=O)[C@@H](Cc2cn(C)c3ccccc23)NC1=O [Test compound 14] | –
11 | 0.58 (≈ 1.53 µM) | CSCC[C@H]1NC(=O)[C@@H](Cc2c3ccccc3cc3ccccc23)NC1=O [Test compound 11] | –
12 | 0.48 (≈ 1.46 µM) | CSCC[C@H]1NC(=O)[C@@H](Cc2cccc3ccccc23)NC1=O [Test compound 10] | –
13 | 0.59 (≈ 1.59 µM) | CSCC[C@@H]1C(=O)N(C)[C@H]([C@H](C)c2cccc3ccccc23)C(=O)N1C [Test compound 16] | –
14 | 0.72 (≈ 1.77 µM) | CSCC[C@H]1NC(=O)[C@@H](Cc2c(-c3ccccc3)n(C)c3ccccc23)NC1=O [Test compound 13] | –
